# Measured values as given in PMC11224111, “Optimizing the pharmacokinetics of an ^211At-labeled RGD peptide with an albumin-binding moiety via the administration of an albumin-binding inhibitor” (European Journal of Nuclear Medicine and Molecular Imaging, 2024).
# Experiments:
# [1] = test system: U-87 MG tumor-bearing mice; set-up: method as in PMID 37819452; conditions: until 24-h postinjection, nonadministration of IPBA; cited from earlier work
# [2] = test system: U-87 MG tumor-bearing mice; set-up: method as in PMID 37819452; conditions: 370 and 925 kBq without IPBA; cited from earlier work
# [3] = test system: U-87 MG tumor-bearing mice; assay: Therapeutic experiments in U-87 MG tumor-bearing mice; assay type: in vivo; conditions: for Relative body weight / Relative tumor volume: 1.85 MBq with IPBA; for Relative body weight: relative to initial body weight; for Relative tumor volume: relative to initial tumor volume
# Protocol: To prepare tumor-bearing mice, 5 × 10^6 of U-87 MG cells were subcutaneously inoculated into the right shoulder of 4-week-old female BALB/c nude mice (13–15 g, Japan SLC, Inc.) as previously reported. At approximately 10-day postinoculation of U-87 MG cells, they were used for each experiment after tumor size reached 0.3–0.5 cm^3.
# U-87 MG tumor-bearing mice were divided into three groups, [^211At]1 (1.85 MBq) (n = 6) injected group, only […] (1.85 MBq) and IPBA (n = 6) injected group, and vehicle and IPBA (n = 3) injected group as a control group. In IPBA injected group, it was administered at 10 molar equivalent of blood albumin at 1-h postinjection of [^211At]1 or vehicle. Tumor volume and body weight of mice were monitored 5 or 6 times weekly. Tumor size was measured with a slide caliper, and tumor volume was calculated using a formula: volume = 4/3 π (1/2 length × 1/2 width × 1/2 height). Tumor volume and body weight compared to the values on the day of treatment (relative tumor volume). The mice were euthanized humanely when body weight was less than 80% at baseline (day 0) or when the tumor weight reached more than 10% of body weight as the endpoint.
# [4] = set-up: method as in PMID 37819452; conditions: normal mice; cited from earlier work
# [5] = mouse, in vivo; cited from earlier work
substance,measurement,setting,value
Ga-DOTA-K([^211At]APBA)-c(RGDfK) [[^211At]1],"Excretion, feces",[1],2.75 ± 0.40 %IA
same,"Excretion, urine",[1],10.94 ± 2.66 %IA
same,Weight loss and death,[2],"a little weight loss, but no mice died"
same,Body weight loss,"[3]; 1.85 MBq followed by IPBA, temporary, recovered",less than 10%
same,Tumor growth,"[3]; 1.85 MBq followed by IPBA, vs control group",significantly more inhibited than it was in the control group
same,Relative body weight,[3]; day 0 after injection,1.00 (0.00)
same,Relative tumor volume,[3]; day 0 after injection,1.00 (0.00)
same,Relative body weight,[3]; day 1 after injection,0.99 (0.02)
same,Relative tumor volume,[3]; day 1 after injection,1.14 (0.11)
same,Relative body weight,[3]; day 2 after injection,0.99 (0.01)
same,Relative tumor volume,[3]; day 2 after injection,1.19 (0.09)
same,Relative body weight,[3]; day 3 after injection,0.97 (0.03)
same,Relative tumor volume,[3]; day 3 after injection,1.23 (0.15)
same,Relative body weight,[3]; day 4 after injection,0.96 (0.02)
same,Relative tumor volume,[3]; day 4 after injection,1.21 (0.18)
same,Relative body weight,[3]; day 6 after injection,0.93 (0.04)
same,Relative tumor volume,[3]; day 6 after injection,1.24 (0.17)
same,Relative body weight,[3]; day 7 after injection,0.94 (0.03)
same,Relative tumor volume,[3]; day 7 after injection,1.25 (0.19)
same,Time within which all mice died,[3]; 1.85 MBq without IPBA,≤ 9 days
same,Toxicity,[4],no serious hematotoxicity and weight loss
Ga-DOTA-K([^125I]IPBA)-c(RGDfK) [[^125I]2],"Radioactivity, Blood",[5],11.80 (0.75) % injected activity per gram
same,"Radioactivity, Bone",[5],1.50 (0.26) % injected activity per gram
same,"Radioactivity, Brain",[5],0.29 (0.03) % injected activity per gram
same,"Radioactivity, Heart",[5],3.81 (0.18) % injected activity per gram
same,"Radioactivity, Kidney",[5],3.70 (0.65) % injected activity per gram
same,"Radioactivity, L. intestine",[5],1.20 (0.25) % injected activity per gram
same,"Radioactivity, Liver",[5],1.96 (0.18) % injected activity per gram
same,"Radioactivity, Lung",[5],5.60 (0.52) % injected activity per gram
same,"Radioactivity, Muscle",[5],1.32 (0.16) % injected activity per gram
same,"Radioactivity, Neck",[5],0.09 (0.02) % injected activity
same,"Radioactivity, Pancreas",[5],2.05 (0.25) % injected activity per gram
same,"Radioactivity, S. intestine",[5],1.58 (0.31) % injected activity per gram
same,"Radioactivity, Spleen",[5],1.61 (0.12) % injected activity per gram
same,"Radioactivity, Stomach",[5],0.87 (0.11) % injected activity
